Measured values reported in patent US20150274634A1, “COMPOUNDS FOR THE TREATMENT OF OBESITY AND METHODS OF USE THEREOF” (The Children's Medical Center Corporation, priority 2014, published 2015).

Key:
[1] = weight loss products; cited from earlier work
mice = assay: Locomotor activity (Comprehensive Lab Animal Monitoring System); format: in vivo
Method: FIGS. 16A and 16B are graphs showing x (FIG. 16A) and y (FIG. 16B) direction ambulatory motion for control and celastrol in dark and light cycles. Toxicity was evaluated using Columbus Instruments Comprehensive Lab Animal Monitoring System we have measure the locomotor activity of the animals.
Locomotor activity was also normal in celastrol-treated mice. This is consistent with celastrol not having a toxic effect causing anorexia and weight loss, since the latter would be associated with decreased locomotor activity.
FIGS. 16A and 16B are graphs showing x (FIG. 16A) and y (FIG. 16B) direction ambulatory motion for control and celastrol in dark and light 2 cycles. Toxicity was evaluated using Columbus Instruments Comprehensive Lab Animal Monitoring System we have measure the locomotor activity of the animals.

[2] = test system: alanine transaminase (ALT); assay: Serum ALT by ELISA; format: in vivo; conditions: HFD-fed obese mice; 100 μg/kg i.p., three weeks
Method: (§1) To investigate the effect of celastrol administration on liver function, serum levels of alanine transaminase (ALT) and aspartate transaminase (AST) were measured in mice following three weeks of celastrol treatment (100 μg/kg, i.p.). ALT and AST were measured using an enzyme-linked immunosorbent assay (ELISA) kit (from Bio Scientific).

[3] = test system: aspartate transaminase (AST); assay: Serum AST by ELISA; format: in vivo; conditions: HFD-fed obese mice; 100 μg/kg i.p., three weeks
Method: as §1

HFD-fed obese mice [4] = assay: Liver and kidney histology (H&E); format: in vivo; conditions: 100 μg/kg i.p., three weeks
HFD-fed obese mice [5] = assay: Leptin injection upon acute celastrol treatment, HFD-fed obese mice; format: in vivo; conditions: leptin 10 mg/kg i.p.
Method: (§2) It was therefore hypothesized that celastrol exerts anti-obesity effects through increasing leptin sensitivity in the brains of the HFD-fed obese mice. To test this hypothesis, leptin was administered to celastrol- or vehicle-treated HFD-fed obese animals. To avoid any possible leptin sensitizing effect of weight loss or decreased food intake created by celastrol administration, leptin injections were carried out upon acute celastrol treatment as described below.
(§3) Lean and HFD-fed obese mice were divided into four groups: 1) DMSO+saline, 2) DMSO+leptin, 3) celastrol+saline, and 4) celastrol+leptin (n=3 per group). Mice were injected (i.p.) with 100 μg/kg celastrol or vehicle (DMSO) one hour before dark cycle (day zero). 24 hours later, mice were injected for a second time with celastrol or DMSO (day 1), and all animals were then taken to 24 hour-fasting. On day two, at 21 hours of fasting, mice received a final injection of DMSO or celastrol. 30 minutes prior to dark cycle, at 23.5 hour of fasting, mice received a single i.p. injection of leptin (10 mg/kg, dissolved in saline), or saline. […] 1, 3, 6, 15, and 24-hour food intake and 24-hour body weight changes were recorded (FIG. 7A). […] This is clearly evident when food intake of the celastrol-treated mice is calculated in percent values (FIG. 7B). […]

lean mice = assay: Leptin injection upon acute celastrol treatment, lean mice; format: in vivo; conditions: 6-hour time point, leptin 10 mg/kg i.p., DMSO or celastrol 100 μg/kg i.p. pretreatment
Method: as §2, §3

In the case of [Cr] [Chromium], the Safety [1] is given as “Likely safe”.
For CC1=C(O)C(=O)C=C2C1=CC=C1[C@@]2(C)CC[C@@]2(C)[C@@H]3C[C@](C)(C(=O)O)CC[C@]3(C)CC[C@]12C [celastrol], the locomotor activity (mice; celastrol-treated mice) was “normal”, the “x and y direction ambulatory motion counts” value (mice; dark and light cycles, celastrol versus control) was “not significantly different” and the “serum ALT level” value [2] was “decreases”. The “serum AST level” value [3] was “decreases” and the kidney morphology (HFD-fed obese mice [4]) was “no detectable change”.
In the case of “Conjugated linoleic acid [Conjugated linoleic acid (CLA)]”, the Effectiveness [1] is listed as “Possibly effective” and the Safety [1] is listed as “Possibly safe”.
In the case of “leptin: peptide hormone, afferent signal in a negative feedback loop regulating food intake and body weight”, the “decrease in food intake upon leptin injection” value (HFD-fed obese mice [5]; 6-hour time point, DMSO or celastrol 100 μg/kg i.p. pretreatment) is reported as “approximately 40%”, the “24-hour body weight change” value (HFD-fed obese mice [5]; 24 hour ad libitum feeding after 24-hour fasting, celastrol 100 μg/kg i.p.) is reported as “resistant” and the “decrease in food intake upon leptin injection” value (lean mice) is reported as “approximately 40%”.
